Laboratory results taken from ChEMBL document CHEMBL1143231, “Specific fluorescent detection of fibrillar alpha-synuclein using mono- and trimethine cyanine dyes” (Bioorg Med Chem, 2008).

Experiments:
Homo sapiens [1] = species on record: Homo sapiens; test: Binding affinity to human beta amyloid protein 1-28 from Alzheimers disease patient
Homo sapiens [2] = species on record: Homo sapiens; test: Binding affinity to human beta amyloid protein 1-40 from Alzheimers disease patient

`Cc1ccc2c(c1)sc(-c1ccc(N(C)C)cc1)[n+]2C` was tested, and the Kb (Homo sapiens [1]) was 1.85 10^6/M and the Kb (Homo sapiens [2]) was 0.5 10^6/M.
